According to patent US12441703B2, “Carboxamides as modulators of sodium channels” (VERTEX PHARMACEUTICALS INCORPORATED, priority 2019, dated 2025):

biological target: human NaV 1.8 (Homo sapiens, UniProt Q9Y5Y9); experiment: E-VIPR assay for detecting and measuring NaV inhibition properties; type: cell-based; details: E-VIPR assay conducted in the presence of human serum; HEK cells expressing truncated human NaV 1.8; read-out: IC50
Excerpt: Sodium ion channels are voltage-dependent proteins that can be activated by inducing membrane voltage changes by applying electric fields. The electrical stimulation instrument and methods of use, referred to as E-VIPR, are described in International Publication No. WO 2002/008748 A3 and C.-J. Huang et al. Characterization of voltage-gated sodium channel blockers by electrical stimulation and fluorescence detection of membrane potential, 24 Nature Biotech. 439-46 (2006), both of which are incorporated by reference in their entirety. The instrument comprises a microtiter plate handler, an optical system for exciting the coumarin dye while simultaneously recording the coumarin and oxonol emissions, a waveform generator, a current- or voltage-controlled amplifier, and parallel electrode pairs that are inserted into assay plate wells. Under integrated computer control, this instrument passes user-programmed electrical stimulus protocols to cells within the wells of the microtiter plate.
16-20 hours prior to running the assay on E-VIPR, HEK cells expressing a truncated form of human NaV 1.8 with full channel activity were seeded into microtiter 384-well plates, pre-coated with matrigel, at a density of 25,000 cells per well. 2.5-5% KIR2.1 Bacmam virus was added to the final cell suspension before seeding into cell plates. HEK cells were grown in Dulbecco's Modified Eagle's Medium (DMEM) supplemented with 10% FBS (Fetal Bovine Serum, qualified; Sigma #F4135), 1% NEAA (Non-Essential Amino Acids, Gibco #11140), 1% HEPES (Gibco #15630), 1% Pen-Strep (Penicillin-Streptomycin; Gibco #15140) and 5 μg/ml Blasticidin (Gibco #R210-01). Cells were expanded in vented cap cell culture flasks, with 90-95% humidity and 5% CO2.
Compound Loading Buffer (2× concentration): Na/TMA Cl Bath1 Buffer containing HS (omitted in experiments run in the absence of human serum (HS)) 50%, VABSC-1 1 mM, BSA 0.2 mg/ml (in Bath-1), KCl 9 mM, DMSO 0.75%.
• 1) To reach the final concentration in each well, 400 nL of each compound was pre-spotted (in neat DMSO) into polypropylene compound plates at 250× desired final concentration from an intermediate stock concentration of 0.075 mM, in an 11 point dose response, 3-fold dilution, resulting in a top dose of 300 nM final concentration in the cell plate. Vehicle control (neat DMSO), and positive control (an established NaV1.8 inhibitor, 25 μM final in assay in DMSO) were added manually to the outermost columns of each plate respectively. The compound plate was backfilled with 45 μL per well of Compound Loading Buffer resulting in a 250 fold dilution of compound following a 1:1 transfer of compound into the cell plate (see Step 6). Final DMSO concentration for all wells in the assay was 0.625% (0.75% DMSO was supplemented to the Compound Loading Buffer for a final DMSO concentration of 0.625%). This assay dilution protocol was adjusted to enable a higher dose range to be tested in the presence of HS or if the final assay volume was altered. • 2) Hexyl Dye Solution was prepared. • 3) Cell plates were prepared. On the day of the assay, the media was aspirated, and the cells were washed three times with 80 μL of Bath-1 buffer, maintaining 25 μL residual volume in each well. • 4) 25 μL per well of Hexyl Dye Solution was dispensed into the cell plates. The cells were incubated for 20 minutes at room temperature or ambient conditions in darkness. • 5) 45 μL per well of Compound Loading Buffer was dispensed into compound plates. • 6) The cell plates were washed three times with 80 μL per well of Bath-1 Buffer, leaving 25 µL of residual volume. Then 25 μL per well from compound plate was transferred to each cell plate. The mixture was incubated for 30 minutes at room temperature/ambient conditions. • 7) The cell plate containing compound was read on E-VIPR using the current-controlled amplifier to deliver stimulation wave pulses using a symmetrical biphasic waveform. […]

human NaV 1.8, sequence (Q9Y5Y9 whole entry, looked up, the tested form may be a part): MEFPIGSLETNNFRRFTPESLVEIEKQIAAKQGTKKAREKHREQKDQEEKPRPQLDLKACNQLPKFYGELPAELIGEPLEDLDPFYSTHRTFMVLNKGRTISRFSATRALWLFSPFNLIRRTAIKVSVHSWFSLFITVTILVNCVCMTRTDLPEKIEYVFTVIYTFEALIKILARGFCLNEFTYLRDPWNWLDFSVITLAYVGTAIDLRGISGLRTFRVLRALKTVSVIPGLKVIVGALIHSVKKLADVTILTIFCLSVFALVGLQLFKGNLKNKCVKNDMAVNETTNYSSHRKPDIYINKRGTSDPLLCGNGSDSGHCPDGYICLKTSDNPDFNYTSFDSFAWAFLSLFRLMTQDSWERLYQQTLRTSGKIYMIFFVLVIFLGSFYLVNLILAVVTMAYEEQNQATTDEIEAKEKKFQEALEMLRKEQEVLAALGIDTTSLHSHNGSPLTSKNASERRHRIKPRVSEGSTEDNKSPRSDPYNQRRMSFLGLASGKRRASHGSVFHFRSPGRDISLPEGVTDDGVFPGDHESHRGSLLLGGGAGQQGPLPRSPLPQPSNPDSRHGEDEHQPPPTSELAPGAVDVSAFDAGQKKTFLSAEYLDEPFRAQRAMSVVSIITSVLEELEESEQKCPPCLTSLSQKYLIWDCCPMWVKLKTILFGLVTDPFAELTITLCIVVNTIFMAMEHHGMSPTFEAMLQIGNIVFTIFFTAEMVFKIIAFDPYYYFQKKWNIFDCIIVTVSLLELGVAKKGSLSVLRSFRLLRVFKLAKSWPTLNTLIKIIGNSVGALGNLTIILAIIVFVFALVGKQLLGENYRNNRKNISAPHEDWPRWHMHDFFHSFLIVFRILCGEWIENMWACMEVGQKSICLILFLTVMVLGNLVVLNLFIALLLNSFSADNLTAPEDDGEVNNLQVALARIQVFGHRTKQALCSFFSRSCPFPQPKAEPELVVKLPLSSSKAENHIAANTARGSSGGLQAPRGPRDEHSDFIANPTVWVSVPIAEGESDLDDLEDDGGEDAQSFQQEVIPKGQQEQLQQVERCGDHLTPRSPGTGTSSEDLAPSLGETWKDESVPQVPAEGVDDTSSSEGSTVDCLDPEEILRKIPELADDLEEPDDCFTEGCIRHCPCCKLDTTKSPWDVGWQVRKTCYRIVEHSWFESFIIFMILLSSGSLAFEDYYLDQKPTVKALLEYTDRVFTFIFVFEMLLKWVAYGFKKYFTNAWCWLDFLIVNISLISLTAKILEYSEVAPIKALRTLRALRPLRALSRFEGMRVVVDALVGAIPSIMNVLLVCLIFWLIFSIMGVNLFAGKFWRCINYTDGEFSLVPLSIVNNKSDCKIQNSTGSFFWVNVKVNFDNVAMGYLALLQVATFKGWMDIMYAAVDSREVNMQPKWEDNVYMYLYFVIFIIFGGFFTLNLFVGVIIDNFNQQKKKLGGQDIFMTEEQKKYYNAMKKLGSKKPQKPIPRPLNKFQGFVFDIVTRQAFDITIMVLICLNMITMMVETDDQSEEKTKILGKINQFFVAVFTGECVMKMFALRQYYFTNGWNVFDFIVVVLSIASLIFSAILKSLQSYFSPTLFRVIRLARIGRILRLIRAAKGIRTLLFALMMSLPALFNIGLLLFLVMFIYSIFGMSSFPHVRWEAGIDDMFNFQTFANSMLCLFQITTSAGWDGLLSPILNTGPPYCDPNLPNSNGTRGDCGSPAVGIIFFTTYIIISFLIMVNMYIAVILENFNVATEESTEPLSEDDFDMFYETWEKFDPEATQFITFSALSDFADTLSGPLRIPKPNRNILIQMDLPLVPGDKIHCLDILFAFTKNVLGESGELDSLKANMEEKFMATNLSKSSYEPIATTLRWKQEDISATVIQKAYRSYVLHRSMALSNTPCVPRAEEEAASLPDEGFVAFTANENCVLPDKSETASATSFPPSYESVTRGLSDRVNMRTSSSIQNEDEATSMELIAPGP

SMILES | IC50 [nM]
COc1nc(Cl)ccc1Oc1ccc(C(F)(F)F)cc1C(=O)Nc1ccnc(C(N)=O)c1 [Compound 1, 4-[[2-[(6-Chloro-2-Methoxy-3-Pyridyl)Oxy]-5-(Trifluoromethyl)Benzoyl]Amino]Pyridine-2-Carboxamide] | 390
NC(=O)c1cc(NC(=O)c2c(Oc3ccc(F)c4c3OCC4)cccc2C(F)(F)F)ccn1 [Compound 78, 4-[[2-[(4-fluoro-2,3-dihydrobenzofuran-7-yl)oxy]-6-(trifluoromethyl)benzoyl]amino]pyridine-2-carboxamide] | > 3000
Cc1nc(C(F)(F)F)ccc1Oc1ccc(C(F)(F)F)c(F)c1C(=O)Nc1ccnc(C(N)=O)c1 [Compound 26, 4-[[2-fluoro-6-[[2-methyl-6-(trifluoromethyl)-3-pyridyl]oxy]-3-(trifluoromethyl)benzoyl]amino]pyridine-2-carboxamide] | 1300
COc1c(C(F)(F)F)ccc(Oc2ccc(OC(C)C)c(Cl)c2)c1C(=O)Nc1ccnc(C(N)=O)c1 [Compound 56, 4-[[6-(3-chloro-4-isopropoxy-phenoxy)-2-methoxy-3-(trifluoromethyl)benzoyl]amino]pyridine-2-carboxamide] | 48
[2H]C([2H])([2H])Oc1cc(OC(F)(F)F)ccc1Oc1cc(C#CCC(C)C)cc(F)c1C(=O)Nc1ccnc(C(N)=O)c1 [Compound 1021, 4-[[2-fluoro-4-(4-methylpent-1-ynyl)-6-[2-(trideuteriomethoxy)-4-(trifluoromethoxy)phenoxy]benzoyl]amino]pyridine-2-carboxamide] | 41
NC(=O)c1cc(NC(=O)c2cc(C(F)(F)F)ccc2Oc2ccc(F)c(Cl)c2)ccn1 [Compound 11, 4-[[2-(3-chloro-4-fluoro-phenoxy)-5-(trifluoromethyl)benzoyl]amino]pyridine-2-carboxamide] | 1400
Cc1cc(Oc2ccc(C(F)(F)F)cc2C(=O)Nc2ccnc(C(N)=O)c2)ccc1F [Compound 3, 4-[[2-(4-fluoro-3-methyl-phenoxy)-5-(trifluoromethyl)benzoyl]amino]pyridine-2-carboxamide] | 1400
COc1cc(OC(F)(F)F)ccc1Oc1cc(C(C)(C)C)cnc1C(=O)Nc1ccnc(C(N)=O)c1 [Compound 238, 5-tert-butyl-N-(2-carbamoyl-4-pyridyl)-3-[2-methoxy-4-(trifluoromethoxy)phenoxy]pyridine-2-carboxamide] | 695
CC(C)Oc1ccc(Oc2ccc(C(F)(F)F)cc2C(=O)Nc2ccnc(C(N)=O)c2)cc1 [Compound 9, 4-[[2-(4-isopropoxyphenoxy)-5-(trifluoromethyl)benzoyl]amino]pyridine-2-carboxamide] | 1300
COc1c(C(F)(F)F)ccc(Oc2cccc(C3CCCCC3)c2)c1C(=O)Nc1ccnc(C(N)=O)c1 [Compound 258, 4-[[6-(3-cyclohexylphenoxy)-2-methoxy-3-(trifluoromethyl)benzoyl]amino]pyridine-2-carboxamide] | > 3000
[2H]C([2H])([2H])Oc1cc(OC(F)(F)F)ccc1Oc1cc(C2=COCC2)cc(F)c1C(=O)Nc1ccnc(C(N)=O)c1 [Compound 1008, 4-[[4-(2,3-dihydrofuran-4-yl)-2-fluoro-6-[2-(trideuteriomethoxy)-4-(trifluoromethoxy)phenoxy]benzoyl]amino]pyridine-2-carboxamide] | 21

Continued, values first:

IC50 [nM] | SMILES
27 | COc1cc(OC(F)(F)F)ccc1Oc1cc(C2CC2)cc(C)c1C(=O)Nc1ccnc(C(N)=O)c1 [Compound 248, 4-[[4-cyclopropyl-2-[2-methoxy-4-(trifluoromethoxy)phenoxy]-6-methyl-benzoyl]amino]pyridine-2-carboxamide]
> 3000 | COc1cc(Oc2ccc(C(F)(F)F)c(OC)c2C(=O)Nc2ccnc(C(N)=O)c2)ccc1F [Compound 69, 4-[[6-(4-fluoro-3-methoxy-phenoxy)-2-methoxy-3-(trifluoromethyl)benzoyl]amino]pyridine-2-carboxamide]
> 3000 | COc1cc(OC(F)(F)F)ccc1Oc1ccc(C(F)(F)F)c(O)c1C(=O)Nc1ccnc(C(N)=O)c1 [Compound 383, 4-[[2-hydroxy-6-[2-methoxy-4-(trifluoromethoxy)phenoxy]-3-(trifluoromethyl)benzoyl]amino]pyridine-2-carboxamide]
252 | [2H]C([2H])([2H])Oc1cc(OC(F)(F)F)ccc1Oc1cc(C2CCC(OC)CC2)cc(F)c1C(=O)Nc1ccnc(C(N)=O)c1 (single isomer, unassigned) [1017 (first diastereomer), 4-[[2-fluoro-4-(4-methoxycyclohexyl)-6-[2-(trideuteriomethoxy)-4-(trifluoromethoxy)phenoxy]benzoyl]amino]pyridine-2-carboxamide]
510 | COc1ccc(Cl)cc1Oc1ccc(C(F)(F)F)c(OC)c1C(=O)Nc1ccnc(C(N)=O)c1 [Compound 54, 4-[[6-(5-chloro-2-methoxy-phenoxy)-2-methoxy-3-(trifluoromethyl)benzoyl]amino]pyridine-2-carboxamide]
15 | COc1cc(OC(F)(F)F)ccc1Oc1ccc(C(F)(F)F)c(F)c1C(=O)Nc1cnc(C(N)=O)nc1 [Compound 357, 5-[[2-fluoro-6-[2-methoxy-4-(trifluoromethoxy)phenoxy]-3-(trifluoromethyl)benzoyl]amino]pyrimidine-2-carboxamide]
9 | COc1cc(OC(F)(F)F)ccc1Oc1cc(C2CC3CCC2C3)cc(F)c1C(=O)Nc1ccnc(C(N)=O)c1 (centres unmarked) [Compound 1020, 4-[[2-fluoro-6-[2-methoxy-4-(trifluoromethoxy)phenoxy]-4-norboman-2-yl-benzoyl]amino]pyridine-2-carboxamide]
24.6 | Cc1cnc(C(N)=O)cc1NC(=O)c1c(Oc2ccc(OC(F)(F)F)c(F)c2Cl)ccc(C(F)(F)F)c1F [Compound 296, 4-[[6-[2-Chloro-3-Fluoro-4-(Trifluoromethoxy)Phenoxy]-2-Fluoro-3-(Trifluoromethyl)Benzoyl]Amino]-5-Methyl-Pyridine-2-Carboxamide]
330 | COc1cc(Oc2ccc(F)cc2Cl)c(C(=O)Nc2ccc(C(N)=O)nc2)c(F)c1C(F)(F)F [Compound 367, 5-[[6-(2-chloro-4-fluoro-phenoxy)-2-fluoro-4-methoxy-3-(trifluoromethyl)benzoyl]amino]pyridine-2-carboxamide]
3.3 | COc1cc(OC(F)(F)F)ccc1Oc1ccc(C(F)(F)F)c(F)c1C(=O)Nc1cnnc(C(N)=O)c1 [Compound 356, 5-[[2-fluoro-6-[2-methoxy-4-(trifluoromethoxy)phenoxy]-3-(trifluoromethyl)benzoyl]amino]pyridazine-3-carboxamide]
15.5 | COc1c(Oc2cnc(C(F)(F)F)c(C)c2C(=O)Nc2cnc(C(N)=O)nc2)ccc(OC(F)(F)F)c1F [Compound 335, 5-[[5-[3-fluoro-2-methoxy-4-(trifluoromethoxy)phenoxy]-3-methyl-2-(trifluoromethyl)pyridine-4-carbonyl]amino]pyrimidine-2-carboxamide]
120 | COc1c(Oc2ccc(C3CC3)c(C)c2C(=O)Nc2ccc(C(N)=O)nc2)ccc(OC(F)(F)F)c1F [Compound 197, 5-[[3-cyclopropyl-6-[3-fluoro-2-methoxy-4-(trifluoromethoxy)phenoxy]-2-methyl-benzoyl]amino]pyridine-2-carboxamide]
